Results: patent publication US12187667B2, “Preparation systems and preparation methods for high-quality xylitol crystals” (ZHEJIANG HUAKANG PHARMACEUTICAL CO., LTD., priority 2022, dated 2025)

Key:
[1] = Acidity (pH) of xylitol crystal by the Chinese Pharmacopoeia method, 10 g crystal to 20 ml water; type: physicochemical; conditions: 10 g crystal to 20 ml pure water; for pH of xylitol after one month storage: crystal stored at room temperature for one month; for pH of xylitol after one week storage: crystal stored at room temperature for one week; for pH of xylitol: freshly prepared crystal
Procedure: The acidity of prepared xylitol crystal B was measured according to the method in the Chinese Pharmacopoeia. Xylitol solution was prepared with pure water in a proportion of 10 g crystal to 20 ml water. The pH of the xylitol solution in this Example was measured to be 6.06. After the obtained xylitol crystal B were stored at room temperature for one week, the pH of the xylitol solution was measured to be 6.03 using the same method. After the xylitol crystal was stored at room temperature for one month, the pH of the xylitol solution was measured to be 6.01 using the same method. The acidity of prepared xylitol crystal B was measured according to the method in the Chinese Pharmacopoeia. Xylitol solution was prepared with pure water in a proportion of 10 g crystal to 20 ml water. The pH of the xylitol solution in this Example was measured to be 6.12. After the obtained xylitol crystal B was stored at room temperature for one week, the pH of the xylitol solution was measured to be 6.08 using the same method. After the xylitol crystal was stored at room temperature for one month, the pH of the xylitol solution was measured to be 6.05 using the same method. The acidity of prepared xylitol crystal B was measured according to the method in the Chinese Pharmacopoeia. Xylitol solution was prepared with pure water in a proportion of 10 g crystal to 20 ml water. The pH of the xylitol solution in this Example was measured to be 6.09. After the obtained xylitol crystal B was stored at room temperature for one week, the pH of the xylitol solution was measured to be 6.07 using the same method. After the xylitol crystals were stored at room temperature for one month, the pH of the xylitol solution was measured to be 6.05 using the same method. The acidity of prepared xylitol crystal was measured according to the method in the Chinese Pharmacopoeia. Xylitol solution was prepared with pure water in a proportion of 10 g crystal to 20 ml water. The pH of the xylitol solution in this comparative example was measured to be 5.02. After the obtained xylitol crystals was stored at room temperature for one week, the pH of the xylitol solution was measured to be 4.85 using the same method. After the xylitol crystal was stored at room temperature for one month, the pH of the xylitol solution was measured to be 4.64 using the same method. The acidity of prepared xylitol crystal was measured according to the method in the Chinese Pharmacopoeia. Xylitol solution was prepared with pure water in a proportion of 10 g crystal to 20 ml water. The pH of the xylitol solution in this Contrast was measured to be 5.04. After the obtained xylitol crystal was stored at room temperature for one week, the pH of the xylitol solution was measured to be 4.81 using the same method. After the xylitol crystal was stored at room temperature for one month, the pH of the xylitol solution was measured to be 4.68 using the same method. The acidity of prepared xylitol crystal was measured according to the method in the Chinese Pharmacopoeia. Xylitol solution was prepared with pure water in a proportion of 10 g crystal to 20 ml water. The pH of the xylitol solution in this comparative example was measured to be 5.03. After the obtained xylitol crystal was stored at room temperature for one week, the pH of the xylitol solution was measured to be 4.90 using the same method. After the xylitol crystal was stored at room temperature for one month, the pH of the xylitol solution was measured to be 4.73 using the same method.

[2] = pH of crude xylitol crystal after first crystallization; type: physicochemical; conditions: after first centrifuge and fluidization drying, before recrystallization
Procedure: Step 12, constant vacuum degree of the first crystallization kettle 7 was maintained at −0.095 MPa to further evaporate the xylitol concentrate solution. When temperature of the first crystallization kettle 7 dropped to 65° C., 0.001% xylitol crystal seeds (80-100 mesh) were added, and the system was maintained at constant temperature of 65° C. for evaporation and crystallization for 8 h. Finally, a crude xylitol crystal with purity of 99.5% and pH of 4.87 was obtained by centrifugal separation treatment of the first centrifuge 8 and fluidization drying treatment of the fluidization drying bed 9. At the same time, the primary centrifugal mother liquor C with purity of 90% obtained by the centrifugal separation treatment of the first centrifuge 8 was backset to the blending tank 1.
Step 22, constant vacuum degree of the first crystallization kettle 7 was maintained at −0.095 MPa to further evaporate the xylitol concentrate solution. When temperature of the first crystallization kettle 7 dropped to 64° C., 0.001% xylitol crystal seeds (100-120 mesh) were added, and the system was maintained at constant temperature of 64° C. for evaporation and crystallization for 12 h. Finally, crude xylitol crystal with purity of 99.6% and pH of 4.9 was obtained by centrifugal separation treatment of the first centrifuge 8 and fluidization drying treatment of the fluidization drying bed 9. At the same time, the primary centrifugal mother liquor C with purity of 89.5% obtained by the centrifugal separation treatment of the first centrifuge 8 was backset to the blending tank 1.
Step 32, constant vacuum degree of the first crystallization kettle 7 was maintained at −0.095 MPa to further evaporate the xylitol concentrate solution. When temperature of the first crystallization kettle 7 dropped to 66° C., 0.002% xylitol crystal seeds (60-80 mesh) were added, and the system was maintained at constant temperature of 66° C. for evaporation and crystallization for 10 h. […]

[3] = cited from earlier work
[4] = pH of xylitol crystal prepared from xylitol solutions with different compositions; type: physicochemical; conditions: crystal prepared from xylitol solution of the stated composition
Excerpt: In the production process of xylitol, there are two main factors can affect the pH of the product, one of which is ion exchange process. When xylitol solution passes through cation and anion exchange columns, H^+ and OH^− in resins are exchanged out, respectively. Due to the difference of exchange capacity between cation exchange column and anion exchange column, xylitol crystal products may have different pH. The other factor affecting the pH of xylitol product is the difference in composition of xylitol solution, which leads to a great difference in the pH of xylitol crystal.

[5] = listed as Comparative Example 1
[6] = listed as Comparative Example 3
[7] = listed as Comparative Example 2

| SMILES | pH of xylitol after one month storage [1] | pH of xylitol after one week storage [1] | pH of xylitol [1] | also measured |
| --- | --- | --- | --- | --- |
| OC[C@@H](O)[C@H](O)[C@@H](O)CO [Example 3, xylitol] | 6.05 | 6.07 | 6.09 | – |
| OC[C@@H](O)[C@H](O)[C@@H](O)CO [compound 1, xylitol] | 4.64 | 4.85 | 5.02 | pH of xylitol after one month storage [1, 5]: 4.64; pH of xylitol after one week storage [1, 5]: 4.85; pH of xylitol [1, 5]: 5.02 |
| OC[C@@H](O)[C@H](O)[C@@H](O)CO [Example 3 crude xylitol crystal, xylitol] | – | – | – | pH of crude xylitol crystal [2]: 4.99 |
| O=C[C@H](O)[C@@H](O)[C@H](O)CO [Xylose] | – | – | – | Acidity coefficient (pKa) [3]: 12.14 |
| OC[C@@H](O)[C@H](O)[C@@H](O)CO [100% xylitol, xylitol] | – | – | – | pH of xylitol crystal [4]: 6.02 |
| OC[C@@H](O)[C@H](O)[C@@H](O)CO [compound 3, xylitol] | 4.73 | 4.90 | 5.03 | pH of xylitol after one month storage [1, 6]: 4.73; pH of xylitol after one week storage [1, 6]: 4.90; pH of xylitol [1, 6]: 5.03 |
| OC[C@@H](O)[C@H](O)[C@@H](O)CO [Example 1 crude xylitol crystal, xylitol] | – | – | – | pH of crude xylitol crystal [2]: 4.87 |
| OC[C@@H](O)[C@H](O)[C@@H](O)CO [Example 2, xylitol] | 6.05 | 6.08 | 6.12 | – |
| OC[C@@H](O)[C@H](O)[C@@H](O)CO [Xylitol] | – | – | – | Acidity coefficient (pKa) [3]: 13.24 ± 0.2 |
| OC[C@@H](O)[C@H](O)[C@@H](O)CO [Example 1, xylitol] | 6.01 | 6.03 | 6.06 | – |
| OC[C@@H](O)[C@H](O)[C@@H](O)CO [Example 2 crude xylitol crystal, xylitol] | – | – | – | pH of crude xylitol crystal [2]: 4.9 |
| O=C[C@@H](O)[C@H](O)[C@H](O)CO [Arabinose] | – | – | – | Acidity coefficient (pKa) [3]: 12.46 ± 0.2 |
| OC[C@@H](O)[C@H](O)[C@@H](O)CO [compound 2, xylitol] | 4.68 | 4.81 | 5.04 | pH of xylitol after one month storage [1, 7]: 4.68; pH of xylitol after one week storage [1, 7]: 4.81; pH of xylitol [1, 7]: 5.04 |
| O=C[C@H](O)[C@@H](O)[C@@H](O)[C@H](O)CO [galactose] | – | – | – | Acidity coefficient (pKa) [3]: 12.35 |
